target: Cyclin-H/Cyclin-dependent kinase 7 (Homo sapiens, UniProt P51946+P50613); assay: Inhibition of CDK7/Cyclin H (unknown origin)
Sequence (P51946 whole entry): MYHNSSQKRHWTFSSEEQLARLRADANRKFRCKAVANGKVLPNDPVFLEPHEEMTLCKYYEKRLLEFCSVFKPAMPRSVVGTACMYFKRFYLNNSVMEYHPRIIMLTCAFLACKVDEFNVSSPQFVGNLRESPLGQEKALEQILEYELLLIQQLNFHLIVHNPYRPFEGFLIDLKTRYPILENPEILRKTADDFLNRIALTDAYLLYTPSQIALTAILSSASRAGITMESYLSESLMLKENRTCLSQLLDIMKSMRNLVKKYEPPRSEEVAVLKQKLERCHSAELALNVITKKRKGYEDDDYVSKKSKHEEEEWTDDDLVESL
Sequence (P50613 whole entry): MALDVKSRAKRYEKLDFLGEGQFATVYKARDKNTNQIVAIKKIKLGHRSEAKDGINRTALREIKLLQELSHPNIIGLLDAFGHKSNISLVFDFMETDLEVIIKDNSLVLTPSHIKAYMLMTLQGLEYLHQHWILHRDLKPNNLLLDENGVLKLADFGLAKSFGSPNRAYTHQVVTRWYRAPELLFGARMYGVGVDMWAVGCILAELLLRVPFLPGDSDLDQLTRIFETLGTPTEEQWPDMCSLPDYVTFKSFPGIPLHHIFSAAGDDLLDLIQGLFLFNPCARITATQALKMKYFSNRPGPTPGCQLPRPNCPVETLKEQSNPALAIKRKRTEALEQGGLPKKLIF

Structure (SMILES)	IC50 [nM]
CN(C)C/C=C/C(=O)Nc1ccc(N2CCC[C@@H](Nc3ncc(Cl)c(-c4c[nH]c5ccccc45)n3)C2)nc1	74
CN(C)C/C=C/C(=O)Nc1ccc(O[C@@H]2CCC[C@@H](Nc3ncc(Cl)c(-c4c[nH]c5ccccc45)n3)C2)c(F)c1	269
CN(C)C/C=C/C(=O)Nc1ccc(C(=O)N2CCC[C@@H](Nc3ncc(Cl)c(-c4c[nH]c5ccccc45)n3)C2)nc1	402
C=CC(=O)Nc1ccc(C(=O)N2CCC[C@@H](Nc3ncc(Cl)c(-c4c[nH]c5ccccc45)n3)C2)nc1	919

Reference: BindingDB's records for doi:10.1016/j.ejmech.2021.113481 (Harvard Medical School, 2021)
